From patent publication US10865208B2, “ATG7 inhibitors and the uses thereof” (Millennium Pharmaceuticals, Inc., priority 2016, dated 2020)

Target: recombinant human His-ATG7 enzyme (Homo sapiens (Human), UniProt O95352)
Assay: ATG7 Enzyme Assay (HTRF/FRET, ATG3-GST and Flag-Gabarap)
Format: biochemical
Conditions: for inhibition at 0.123 µM: Concentration 0.123 μM; for inhibition at 0.123 µM / inhibition at 0.111 µM: read-out: Percent Inhibition; for inhibition at 0.111 µM: Concentration 0.111 μM
Outline: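 0.15 nM His-ATG7 was reacted with 5 nM ATG3-GST, 5 nM Flag-Gabarap and 10 μM ATP in HEPES pH 7.5 containing MgCl2, GSH and TCEP for 105 min at 24° C, then stopped with EDTA/KF. Eu-anti-Flag and anti-GST-APC HTRF was read after 2 h. Results are given as single-concentration % inhibition or IC50.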

Sequence of recombinant human His-ATG7 enzyme (O95352 whole entry): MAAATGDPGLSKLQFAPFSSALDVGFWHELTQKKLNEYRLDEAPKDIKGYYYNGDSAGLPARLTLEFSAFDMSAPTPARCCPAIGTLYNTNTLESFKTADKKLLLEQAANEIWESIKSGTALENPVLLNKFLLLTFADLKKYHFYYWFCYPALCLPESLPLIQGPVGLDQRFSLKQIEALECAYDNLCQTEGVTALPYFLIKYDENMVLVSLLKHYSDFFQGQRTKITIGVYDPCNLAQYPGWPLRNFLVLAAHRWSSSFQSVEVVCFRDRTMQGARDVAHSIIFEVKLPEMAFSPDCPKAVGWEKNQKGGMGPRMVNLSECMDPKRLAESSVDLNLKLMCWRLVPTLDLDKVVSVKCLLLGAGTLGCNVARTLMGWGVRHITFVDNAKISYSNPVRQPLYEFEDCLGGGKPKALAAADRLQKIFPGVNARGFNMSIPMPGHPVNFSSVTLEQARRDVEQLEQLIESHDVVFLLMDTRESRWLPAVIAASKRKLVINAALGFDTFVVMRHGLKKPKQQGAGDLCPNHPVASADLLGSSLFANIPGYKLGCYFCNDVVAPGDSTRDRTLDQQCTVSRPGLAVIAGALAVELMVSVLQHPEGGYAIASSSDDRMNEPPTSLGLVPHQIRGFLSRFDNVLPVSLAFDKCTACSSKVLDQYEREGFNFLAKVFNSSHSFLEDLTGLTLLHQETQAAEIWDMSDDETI

Row | Compound | IC50 | inhibition at 0.123 µM | inhibition at 0.111 µM
1 | Cc1ccccc1Sc1nn([C@@H]2O[C@H](COS(N)(=O)=O)[C@@H](O)[C@H]2O)c2ncnc(N)c12 [Compound I-74, [(2R,3S,4R,5R)-5-{4-amino-3-[(2-methylphenyl)sulfanyl]-1H-pyrazolo[3,4-d]pyrimidin-1-yl}-3,4-dihydroxytetrahydrofuran-2-yl]methyl sulfamate] | 50 to 100 nM | 61% | –
2 | Nc1ncnc2c1c(OCCCl)nn2[C@@H]1O[C@H](COS(N)(=O)=O)[C@@H](O)[C@H]1O [Compound I-75, {(2R,3S,4R,5R)-5-[4-amino-3-(2-chloroethoxy)-1H-pyrazolo[3,4-d]pyrimidin-1-yl]-3,4-dihydroxytetrahydrofuran-2-yl}methyl Sulfamate] | 100 to 500 nM | 41% | –
3 | Nc1ncnc2c1c(OCc1ccccc1)nn2[C@@H]1O[C@H](COS(N)(=O)=O)[C@@H](O)[C@H]1O [Compound I-76, {(2R,3S,4R,5R)-5-[4-amino-3-(benzyloxy)-1H-pyrazolo[3,4-d]pyrimidin-1-yl]-3,4-dihydroxytetrahydrofuran-2-yl}methyl Sulfamate] | 100 to 500 nM | 31% | –
4 | CN(C)CCSc1nn([C@@H]2O[C@H](COS(N)(=O)=O)[C@@H](O)[C@H]2O)c2ncnc(N)c12 [Compound I-80, [(2R,3S,4R,5R)-5-(4-amino-3-{[2-(dimethylamino)ethyl]sulfanyl}-1H-pyrazolo[3,4-d]pyrimidin-1-yl)-3,4-dihydroxytetrahydrofuran-2-yl]methyl sulfamate] | 100 to 500 nM | 51% | –
5 | Cc1occc1Sc1nn([C@@H]2O[C@H](COS(N)(=O)=O)[C@@H](O)[C@H]2O)c2ncnc(N)c12 [Compound I-81, [(2R,3S,4R,5R)-5-{4-amino-3-[(2-methyl-3-furyl)sulfanyl]-1H-pyrazolo[3,4-d]pyrimidin-1-yl}-3,4-dihydroxytetrahydrofuran-2-yl]methyl sulfamate] | 50 to 100 nM | 69% | –
6 | Nc1ncnc2c1c(Sc1ccccc1)nn2[C@@H]1O[C@H](COS(N)(=O)=O)[C@@H](O)[C@H]1O [Compound I-82, {(2R,3S,4R,5R)-5-[4-amino-3-(phenylsulfanyl)-1H-pyrazolo[3,4-d]pyrimidin-1-yl]-3,4-dihydroxytetrahydrofuran-2-yl}methyl Sulfamate] | 20 to 50 nM | – | 80%
7 | Nc1ncnc2c1c(SCC(F)(F)F)nn2[C@@H]1O[C@H](COS(N)(=O)=O)[C@@H](O)[C@H]1O [Compound I-83, [(2R,3S,4R,5R)-5-{4-amino-3-[(2,2,2-trifluoroethyl)sulfanyl]-1H-pyrazolo[3,4-d]pyrimidin-1-yl}-3,4-dihydroxytetrahydrofuran-2-yl]methyl sulfamate] | 20 to 50 nM | 82% | –
8 | Nc1ncnc2c1c(Sc1cccc3ccccc13)nn2[C@@H]1O[C@H](COS(N)(=O)=O)[C@@H](O)[C@H]1O [Compound I-84, {(2R,3S,4R,5R)-5-[4-amino-3-(1-naphthylsulfanyl)-1H-pyrazolo[3,4-d]pyrimidin-1-yl]-3,4-dihydroxytetrahydrofuran-2-yl}methyl sulfamate] | 50 to 100 nM | 62% | –
9 | Nc1ncnc2c1c(SC(F)F)nn2[C@@H]1O[C@H](COS(N)(=O)=O)[C@@H](O)[C@H]1O [Compound I-85, [(2R,3S,4R,5R)-5-{4-amino-3-[(difluoromethyl)sulfanyl]-1H-pyrazolo[3,4-d]pyrimidin-1-yl}-3,4-dihydroxytetrahydrofuran-2-yl]methyl sulfamate] | 20 to 50 nM | 77% | –
10 | Nc1ncnc2c1c(SCC1(O)CCCCC1)nn2[C@@H]1O[C@H](COS(N)(=O)=O)[C@@H](O)[C@H]1O [Compound I-86, [(2R,3S,4R,5R)-5-(4-amino-3-{[(1-hydroxycyclohexyl)methyl]sulfanyl}-1H-pyrazolo[3,4-d]pyrimidin-1-yl)-3,4-dihydroxytetrahydrofuran-2-yl]methyl Sulfamate] | 50 to 100 nM | 64% | –
11 | C[S+]([O-])c1nn([C@@H]2O[C@H](COS(N)(=O)=O)[C@@H](O)[C@H]2O)c2ncnc(N)c12 (stereo partly drawn) [Compound I-87, {(2R,3S,4R,5R)-5-[4-amino-3-(methylsulfinyl)-1H-pyrazolo[3,4-d]pyrimidin-1-yl]-3,4-dihydroxytetrahydrofuran-2-yl}methyl Sulfamate] | 50 to 100 nM | 58% | –
12 | Nc1ncnc2c1c(SCCc1ccccc1)nn2[C@@H]1O[C@H](COS(N)(=O)=O)[C@@H](O)[C@H]1O [Compound I-88, [(2R,3S,4R,5R)-5-{4-amino-3-[(2-phenylethyl)sulfanyl]-1H-pyrazolo[3,4-d]pyrimidin-1-yl}-3,4-dihydroxytetrahydrofuran-2-yl]methyl sulfamate] | 20 to 50 nM | 78% | –

Other lines, results leading:

Row | IC50 | inhibition at 0.123 µM | inhibition at 0.111 µM | Compound
13 | 20 to 50 nM | 83% | – | Nc1ncnc2c1c(SCc1ccc(Cl)o1)nn2[C@@H]1O[C@H](COS(N)(=O)=O)[C@@H](O)[C@H]1O [Compound I-73, [(2R,3S,4R,5R)-5-(4-amino-3-{[(5-chloro-2-furyl)methyl]sulfanyl}-1H-pyrazolo[3,4-d]pyrimidin-1-yl)-3,4-dihydroxytetrahydrofuran-2-yl]methyl sulfamate]
14 | 20 to 50 nM | 85% | – | CC(C)CSc1nn([C@@H]2O[C@H](COS(N)(=O)=O)[C@@H](O)[C@H]2O)c2ncnc(N)c12 [Compound I-77, {(2R,3S,4R,5R)-5-[4-amino-3-(isobutylsulfanyl)-1H-pyrazolo[3,4-d]pyrimidin-1-yl]-3,4-dihydroxytetrahydrofuran-2-yl}methyl sulfamate]
15 | 20 to 50 nM | 80% | – | Nc1ncnc2c1c(Sc1ccccc1Cl)nn2[C@@H]1O[C@H](COS(N)(=O)=O)[C@@H](O)[C@H]1O [Compound I-78, [(2R,3S,4R,5R)-5-{4-amino-3-[(2-chlorophenyl)sulfanyl]-1H-pyrazolo[3,4-d]pyrimidin-1-yl}-3,4-dihydroxytetrahydrofuran-2-yl]methyl sulfamate]
16 | < 20 nM | 85% | – | Nc1ncnc2c1c(I)nn2[C@@H]1O[C@H](COS(N)(=O)=O)[C@@H](O)[C@H]1O [Compound I-79, [(2R,3S,4R,5R)-5-(4-amino-3-iodo-1H-pyrazolo[3,4-d]pyrimidin-1-yl)-3,4-dihydroxytetrahydrofuran-2-yl]methyl sulfamate]
17 | < 20 nM | – | 86% | Cc1ccc(Sc2nn([C@@H]3O[C@H](COS(N)(=O)=O)[C@@H](O)[C@H]3O)c3ncnc(N)c23)cc1 [Compound I-89, [(2R,3S,4R,5R)-5-{4-amino-3-[(4-methylphenyl)sulfanyl]-1H-pyrazolo[3,4-d]pyrimidin-1-yl}-3,4-dihydroxytetrahydrofuran-2-yl]methyl sulfamate]
18 | 20 to 50 nM | 84% | – | N#CCSc1nn([C@@H]2O[C@H](COS(N)(=O)=O)[C@@H](O)[C@H]2O)c2ncnc(N)c12 [Compound I-90, [(2R,3S,4R,5R)-5-{4-amino-3-[(cyanomethyl)sulfanyl]-1H-pyrazolo[3,4-d]pyrimidin-1-yl}-3,4-dihydroxytetrahydrofuran-2-yl]methyl sulfamate]
